Data: PMC10791743, “Selective CK1α degraders exert antiproliferative activity against a broad range of human cancer cell lines” (Nature Communications, 2024)
Several values for one entry are separate records, joined by “and”; a condition that tells them apart may be missing. Equal values may be shown once. Entries after “also recorded” stand apart in the source; their conditions may differ.

Legend:
[1] = tested on: panel of AML and ALL cell lines; experiment: CTG viability in a panel of AML and ALL cell lines (Fig. 3a); assay type: cell-based, human; details: for IC50: replicate values
Experimental: The primary screen was performed in 384-well format using the CellTiter Glo (CTG) luminescent cell viability assay (Promega) as previously described. […] After overnight incubation at 37 °C in a humidified 5% CO2 incubator, cells were treated with compounds in dose–response format using a Pintool on a Biomek FX^P Laboratory Automation Workstation (Beckman Coulter). […] Luminescence signal was measured using an EnVision plate reader (PerkinElmer).
HD-MB03 cell line was obtained from Drs. Milde, Witt and Deubzer[52]. HD-MB03 and MB004 cells were grown in a neurobasal medium supplemented with glutamine, streptomycin, penicillin, B27, EGF, bFGF, and heparin as previously described. MB002 and MB004 cells were obtained from Dr Yoon-Jae Cho[54]. MB002 cells were cultured in 80% neurobasal medium supplemented with glutamine, streptomycin, penicillin, B27, and 20% conditioned media from previous passages; EGF, bFGF, and heparin were also added to the medium. MHH-CALL4, NALM-16, MHH-CALL-2 cells were obtained from the German Collection of Microorganisms and Cell Cultures GmbH (DSMZ, Germany). PER-117 cells were obtained from Telethon Kids Institute (Perth, Australia). The cells were cultured in RPMI1640 medium supplemented with 10% FBS (Hyclone), Penicillin/Streptomycin (100 units/mL), and Glutamine (100 µM) except for MHH-CALL-2 cells where 20% FBS were used. […] OCI-AML3 cells were purchased from DSMZ (ACC 690) and cultured in Alpha-MEM media (Invitrogen) supplemented with 20% FBS and 100 U/ml penicillin–streptomycin. […] Cell identity was confirmed by STR profiling using PowerPlex® Fusion System (Promega).

[2] = tested on: MOLM-13 cells overexpressing FLAG-tagged CK1α G40N mutant; experiment: CK1α mutant rescue, CTG viability, FLAG-CK1α G40N MOLM-13; assay type: cell-based, human
Experimental: To evaluate the contribution of the CK1α degradation in SJ3149-mediated cytotoxicity, we utilized the degradation-resistant mutant CK1α G40N[41]. MOLM-13 cells were transduced with lentivirus to overexpress FLAG-tagged wild type CK1α or the G40N mutant, which removes the essential glycine in the CK1α degron G-loop.
The media was changed after cells rested in the 37 °C incubator overnight. […] As described above in the Molecular Glue Library Screening section, transduced MOLM-13 cells were seeded in 384-well plates at 1250 cells per well and allowed to rest overnight. 30 nl of CK1α degraders of interest were deposited on the cells using an Echo 650 acoustic liquid handler […]. […] This was done twice for a total of six technical replicates.

[3] = Homo sapiens, MOLM-13, MOLM-13 cells

SMILES: Cc1cccc(C(=O)Nc2ccc3c(c2)CN(C2CCC(=O)NC2=O)C3=O)c1 (stereo not drawn) [SJ0040]
- IC50 ([1]; HNT-34 cells): 2 nM (2×) and 4.9 nM
- IC50 ([1]; Homo sapiens, MHHCALL-2 cells): 27 nM
- IC50 [1, 3]: 125 nM
- IC50 ([1]; KASUMI-3 cells): 16 nM and 11 nM and 30.2 nM
- IC50 ([1]; MHHCALL-4 cells): 67 nM and 73 nM and 17 nM
- IC50 ([1]; MOLM-13 cells): 136 nM and 96.2 nM
- IC50 ([1]; NALM16 cells): 130 nM and 16 nM and 25 nM

SMILES: O=C1CCC(N2Cc3cc(Nc4noc5ccccc45)ccc3C2=O)C(=O)N1 (stereo not drawn) [SJ3149]
- Viability response of cells expressing CK1α G40N vs wild type CK1α ([2]; CTG 72 h): no longer sensitive to SJ3149; also recorded: reduced response
- cell viability percentages, CK1a G40N ([2]; Concentration 0.000542): 79.1206% and 68.9136% and 86.2719% and 90.6755% and 74.2686% and 67.4931%
- cell viability percentages, CK1a G40N ([2]; Concentration 0.001625): 77.8434% and 63.4222% and 59.9052% and 65.772% and 68.5727% and 55.5817%
- cell viability percentages, CK1a G40N ([2]; Concentration 0.004875): 72.8442% and 62.075% and 50.1243% and 53.1953% and 62.3344% and 69.4392%
- cell viability percentages, CK1a G40N ([2]; Concentration 0.014624): 59.4413% and 49.1388% and 62.3084% and 70.556% and 54.4032% and 55.8792%
- cell viability percentages, CK1a G40N ([2]; Concentration 0.043872): 47.6849% and 48.0051% and 58.611% and 66.0269% and 52.3495% and 54.2867%
- cell viability percentages, CK1a G40N ([2]; Concentration 0.131617): 56.3532% and 47.9219% and 49.9326% and 67.2267% and 57.1406% and 57.2358%
- cell viability percentages, CK1a G40N ([2]; Concentration 0.394851): 51.3415% and 43.4521% and 48.9175% and 55.4224% and 56.3876% and 59.8672%
- cell viability percentages, CK1a G40N ([2]; Concentration 1.18455): 47.8506% and 47.8436% and 44.0498% and 54.2517% and 50.6636% and 54.2115%
- cell viability percentages, CK1a G40N ([2]; Concentration 3.55366): 37.4202% and 38.8791% and 44.5898% and 50.284% and 52.251% and 51.3543%
- IC50 values / cytotoxicity in panel of AML and ALL cell lines ([1]; CTG): single digit nanomolar range; also recorded: low nanomolar to sub-nanomolar range
- IC50 ([1]; HNT-34 cells): 1.5 nM
- IC50 ([1]; Homo sapiens, HNT-34, HNT-34 cells): 1 nM
- IC50 ([1]; Homo sapiens, Kasumi-3, KASUMI-3 cells): 118 nM
- IC50 ([1]; Homo sapiens, MHHCALL4, MHHCALL-4 cells): 3 nM
- IC50 ([1]; Homo sapiens, MHHCALL-2 cells): 2 nM
- IC50 [1, 3]: 8 nM
- IC50 ([1]; KASUMI-3 cells): 72 nM and 71.7 nM
- IC50 ([1]; MHHCALL-4 cells): 4 nM
- IC50 ([1]; MOLM-13 cells): 11 nM and 7.1 nM
